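Exposure lasted 48 hours, with cells grown in 96-well plates and compounds tested at five concentrations. GI50 marks 50% less growth.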 Activity calls are given as the source filed them. Rule as the data show it: active = GI50 up to about 1.1 µM and inactive = higher.
Key:
Test in all cases: growth of human tumour cells (NCI), 48 h
KM12 = test system: KM12
DU-145 = test system: DU-145
HL-60 = test system: HL-60
SW-620 = test system: SW-620
OVCAR-4 = test system: OVCAR-4
MOLT-4 = test system: MOLT-4
SK-MEL-5 = test system: SK-MEL-5
SF-268 = test system: SF-268
SR = test system: SR
UACC-257 = test system: UACC-257
OVCAR-5 = test system: OVCAR-5
RXF 393 = test system: RXF 393
U-251 = test system: U-251
M14 = test system: M14
HCT-15 = test system: HCT-15
MDA-MB-231 = test system: MDA-MB-231
NCI-H522 = test system: NCI-H522
SF-539 = test system: SF-539
NCI-H23 = test system: NCI-H23
OVCAR-3 = test system: OVCAR-3

SMILES	GI50 (KM12)	GI50 (DU-145)	GI50 (HL-60)	GI50 (SW-620)	GI50 (OVCAR-4)	GI50 (MOLT-4)	GI50 (SK-MEL-5)	GI50 (SF-268)	GI50 (SR)	GI50 (UACC-257)	GI50 (OVCAR-5)	GI50 (RXF 393)	GI50 (U-251)	GI50 (M14)	GI50 (HCT-15) [µM]	GI50 (MDA-MB-231)	GI50 (NCI-H522)	GI50 (SF-539)	GI50 (NCI-H23)	GI50 (OVCAR-3)
CC(=O)Nc1oc(C)nc1C#N	> 100 µM (inactive)	> 100 µM (inactive)	> 100 µM (inactive)	> 100 µM (inactive)	> 100 µM (inactive)	> 100 µM (inactive)	> 100 µM (inactive)	> 100 µM (inactive)	> 100 µM (inactive)	> 100 µM (inactive)	> 100 µM (inactive)	> 100 µM (inactive)	> 100 µM (inactive)	> 100 µM (inactive)	> 100	> 100 µM (inactive)	–	–	–	–
Cc1ccc(Cc2cc(N3CCN(c4cccc(Cl)c4)CC3)nnc2C)cc1	44.4 µM (inactive)	> 100 µM (inactive)	–	34.3 µM (inactive)	> 100 µM (inactive)	–	11.5 µM (inactive)	> 100 µM (inactive)	–	14.2 µM (inactive)	> 100 µM (inactive)	84.7 µM (inactive)	32.7 µM (inactive)	> 100 µM (inactive)	63.8	> 100 µM (inactive)	18.7 µM (inactive)	38.1 µM (inactive)	37.7 µM (inactive)	> 100 µM (inactive)
CCOC(=O)CCC(NC(=O)c1ccc(Oc2nc3ccccc3nc2C(=O)OCC)cc1)C(=O)OCC (configuration not stated)	> 100 µM (inactive)	> 100 µM (inactive)	> 100 µM (inactive)	> 100 µM (inactive)	> 100 µM (inactive)	> 100 µM (inactive)	> 100 µM (inactive)	> 100 µM (inactive)	> 100 µM (inactive)	> 100 µM (inactive)	> 100 µM (inactive)	–	71.3 µM (inactive)	> 100 µM (inactive)	> 100	40.4 µM (inactive)	> 100 µM (inactive)	> 100 µM (inactive)	> 100 µM (inactive)	> 100 µM (inactive)
O=C(OC1C2OC(=O)c3cc(O)c(O)c(O)c3Oc3cc4c(c(O)c3O)-c3c(cc(O)c(O)c3O)C(=O)OCC3OC(O)C(OC(=O)c5cc(O)c(O)c(O)c5Oc5cc6c(c(O)c5O)-c5c(cc(O)c(O)c5O)C(=O)OC1C(COC6=O)OC2O)C(OC(=O)c1cc(O)c(O)c(O)c1)C3OC4=O)c1cc(O)c(O)c(O)c1 (configuration not stated)	3.36 µM (inactive)	41 µM (inactive)	16.2 µM (inactive)	13.2 µM (inactive)	17.8 µM (inactive)	3.46 µM (inactive)	53.8 µM (inactive)	26.4 µM (inactive)	4.61 µM (inactive)	81.5 µM (inactive)	40.1 µM (inactive)	21.9 µM (inactive)	–	35.2 µM (inactive)	–	19.6 µM (inactive)	–	24.4 µM (inactive)	24.6 µM (inactive)	25.8 µM (inactive)
O=C(c1ccccn1)C1(N2CCCCC2)CCCCC1	> 100 µM (inactive)	> 100 µM (inactive)	88.3 µM (inactive)	> 100 µM (inactive)	> 100 µM (inactive)	> 100 µM (inactive)	> 100 µM (inactive)	17.5 µM (inactive)	> 100 µM (inactive)	> 100 µM (inactive)	> 100 µM (inactive)	–	> 100 µM (inactive)	> 100 µM (inactive)	> 100	> 100 µM (inactive)	15.5 µM (inactive)	> 100 µM (inactive)	91.6 µM (inactive)	> 100 µM (inactive)
O=S(=O)(SC1=NCCN1)c1ccc2ccccc2c1	20.2 µM (inactive)	32 µM (inactive)	16.3 µM (inactive)	19.7 µM (inactive)	52.4 µM (inactive)	24.8 µM (inactive)	26.5 µM (inactive)	23.2 µM (inactive)	–	39.4 µM (inactive)	18.8 µM (inactive)	24.3 µM (inactive)	23.8 µM (inactive)	23.3 µM (inactive)	25.1	17.2 µM (inactive)	17.4 µM (inactive)	23.8 µM (inactive)	22.9 µM (inactive)	27.5 µM (inactive)
CN1c2ccccc2S(=O)(=O)n2c(COc3ccc(Cl)cc3)nnc21	> 100 µM (inactive)	> 100 µM (inactive)	91 µM (inactive)	> 100 µM (inactive)	59.3 µM (inactive)	> 100 µM (inactive)	> 100 µM (inactive)	55 µM (inactive)	–	> 100 µM (inactive)	> 100 µM (inactive)	55.1 µM (inactive)	44 µM (inactive)	> 100 µM (inactive)	> 100	44.8 µM (inactive)	31.3 µM (inactive)	35.5 µM (inactive)	> 100 µM (inactive)	> 100 µM (inactive)
CC12OC3(C(O)C1O)C(C(=O)O[C@H]3CO[Si](C)(C)C(C)(C)C)C2S(=O)(=O)c1ccccc1 (some centres not stated)	33.3 µM (inactive)	> 100 µM (inactive)	25.9 µM (inactive)	81.5 µM (inactive)	34 µM (inactive)	23.6 µM (inactive)	–	47.4 µM (inactive)	41.9 µM (inactive)	25.8 µM (inactive)	> 100 µM (inactive)	–	86.3 µM (inactive)	51.2 µM (inactive)	33.7	60.3 µM (inactive)	17.5 µM (inactive)	58.1 µM (inactive)	–	40.6 µM (inactive)
O=C(Cn1c2ccc(Br)cc2c2nc3ccccc3nc21)N/N=C/c1ccccc1	> 100 µM (inactive)	> 100 µM (inactive)	–	> 100 µM (inactive)	–	> 10 µM (inactive)	> 100 µM (inactive)	87.3 µM (inactive)	78.2 µM (inactive)	> 100 µM (inactive)	> 100 µM (inactive)	34.9 µM (inactive)	85.7 µM (inactive)	> 100 µM (inactive)	–	> 100 µM (inactive)	–	12.9 µM (inactive)	> 100 µM (inactive)	> 100 µM (inactive)
CN(C)/C=N/[C@@H](C(=O)O)c1ccccc1	–	> 100 µM (inactive)	> 100 µM (inactive)	> 100 µM (inactive)	> 100 µM (inactive)	> 100 µM (inactive)	> 100 µM (inactive)	> 100 µM (inactive)	> 100 µM (inactive)	> 100 µM (inactive)	> 100 µM (inactive)	–	> 100 µM (inactive)	> 100 µM (inactive)	> 100	> 100 µM (inactive)	–	–	> 100 µM (inactive)	> 100 µM (inactive)
C[n+]1c2ccccc2c(C(=O)NC(CCCNC(=N)N)C(=O)O)c2ccccc21 (configuration not stated)	> 100 µM (inactive)	> 100 µM (inactive)	–	> 100 µM (inactive)	> 100 µM (inactive)	> 100 µM (inactive)	> 100 µM (inactive)	> 100 µM (inactive)	1.31 µM (inactive)	> 100 µM (inactive)	> 100 µM (inactive)	–	> 100 µM (inactive)	> 100 µM (inactive)	> 100	> 100 µM (inactive)	–	> 100 µM (inactive)	> 100 µM (inactive)	> 100 µM (inactive)
CC(=O)CC(=O)N1CCSC1=S	> 10 µM (inactive)	> 10 µM (inactive)	> 10 µM (inactive)	> 10 µM (inactive)	–	> 10 µM (inactive)	> 10 µM (inactive)	> 10 µM (inactive)	> 10 µM (inactive)	> 10 µM (inactive)	> 10 µM (inactive)	> 10 µM (inactive)	> 10 µM (inactive)	> 10 µM (inactive)	> 10	> 10 µM (inactive)	–	> 10 µM (inactive)	> 10 µM (inactive)	> 10 µM (inactive)
CCSCCCN(CCCSCC)CCCSCC	> 100 µM (inactive)	> 100 µM (inactive)	80.9 µM (inactive)	> 100 µM (inactive)	> 100 µM (inactive)	> 100 µM (inactive)	> 100 µM (inactive)	> 100 µM (inactive)	> 100 µM (inactive)	> 100 µM (inactive)	> 100 µM (inactive)	–	> 100 µM (inactive)	> 100 µM (inactive)	> 100	> 100 µM (inactive)	45.8 µM (inactive)	> 100 µM (inactive)	> 100 µM (inactive)	> 100 µM (inactive)
Cc1cccc(O)c1-c1nnc(CCCCCCCCc2nnc(-c3c(C)cccc3O)n2N)n1N	95.1 µM (inactive)	> 100 µM (inactive)	0.139 µM (active)	> 100 µM (inactive)	18.7 µM (inactive)	8.41 µM (inactive)	> 100 µM (inactive)	51.3 µM (inactive)	19.1 µM (inactive)	> 100 µM (inactive)	> 100 µM (inactive)	–	23.2 µM (inactive)	> 39.7 µM (inactive)	> 100	> 62.2 µM (inactive)	1.07 µM (active)	> 96.4 µM (inactive)	48.6 µM (inactive)	50.5 µM (inactive)
COC(=O)C1Cc2cc3c(cc2C1=O)CCCC3 (configuration not stated)	34.3 µM (inactive)	45.8 µM (inactive)	29.2 µM (inactive)	47 µM (inactive)	64.9 µM (inactive)	41.2 µM (inactive)	48 µM (inactive)	62.1 µM (inactive)	30.3 µM (inactive)	> 100 µM (inactive)	72.9 µM (inactive)	–	43.5 µM (inactive)	> 100 µM (inactive)	43.2	63.7 µM (inactive)	80.5 µM (inactive)	> 100 µM (inactive)	43.2 µM (inactive)	> 100 µM (inactive)

Reference: ChEMBL document CHEMBL1201862, “PubChem BioAssay data set” (2004)
